From patent publication US8952157B2, “Apoptosis-inducing agents for the treatment of cancer and immune and autoimmune diseases” (AbbVie Inc., priority 2008, dated 2015)

The compounds below were run against GST-Bcl-2 (Homo sapiens (Human), UniProt P10415) (assay: Time Resolved-Fluorescence Resonance Energy Transfer (TR-FRET) Bcl-2 binding assay). Conditions: not given.
Procedure, shortened: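 Ki values derived from TR-FRET displacement of F-Bak peptide from GST-Bcl-2, detected with Tb-labelled anti-GST antibody (ex 340, em 520/495 nm). Compound dilution series started at 50 μM (2× starting concentration); room-temperature incubation 3 hours.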

GST-Bcl-2, sequence (P10415 whole entry): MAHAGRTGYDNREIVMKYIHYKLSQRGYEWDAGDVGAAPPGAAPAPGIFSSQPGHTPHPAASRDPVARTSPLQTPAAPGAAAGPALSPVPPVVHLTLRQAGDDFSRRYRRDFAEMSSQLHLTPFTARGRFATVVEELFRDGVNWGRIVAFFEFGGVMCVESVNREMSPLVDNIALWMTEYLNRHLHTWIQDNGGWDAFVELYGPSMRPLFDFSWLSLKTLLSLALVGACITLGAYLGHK

| SMILES | Ki [nM] |
| --- | --- |
| CC1(C)CCC(CN2CCN(c3ccc(C(=O)NS(=O)(=O)c4ccc(N[C@H]5CC[C@H](N(C6CC6)C6CC6)CC5)c([N+](=O)[O-])c4)c(Oc4cc5cc[nH]c5cc4F)c3)CC2)=C(c2ccc(Cl)cc2)C1 [Example 334, Trans-4-(4-{[2-(4-chlorophenyl)-4,4-dimethylcyclohex-1-en-1-yl]methyl}piperazin-1-yl)-N-[(4-{[4-(dicyclopropylamino)cyclohexyl]amino}-3-nitrophenyl)sulfonyl]-2-[(6-fluoro-1H-indol-5-yl)oxy]benzamide] | 0.197 |
| CC1(C)CCC(CN2CCN(c3ccc(C(=O)NS(=O)(=O)c4ccc(N[C@H]5CC[C@H](N6CCOCC6)CC5)c([N+](=O)[O-])c4)c(Oc4cc5cc[nH]c5c(F)c4F)c3)CC2)=C(c2ccc(Cl)cc2)C1 [Example 235, Trans-4-(4-{[2-(4-chlorophenyl)-4,4-dimethylcyclohex-1-en-1-yl]methyl}piperazin-1-yl)-2-[(6,7-difluoro-1H-indol-5-yl)oxy]-N-({4-[(4-morpholin-4-ylcyclohexyl)amino]-3-nitrophenyl}sulfonyl)benzamide] | 0.039 |

Same assay, conditions: GST-Bcl-2 1 nM, F-Bak peptide probe 100 nM, Tb-anti-GST antibody 1 nM; Ki by Wang's equation

| SMILES | Ki [nM] |
| --- | --- |
| CC1(C)CCC(CN2CCN(c3ccc(C(=O)NS(=O)(=O)c4ccc(NCC5CCOCC5)c([N+](=O)[O-])c4)c(Oc4cccc5[nH]cc(Cl)c45)c3)CC2)=C(c2ccc(Cl)cc2)C1 [Example 266, 2-[(3-chloro-1H-indol-4-yl)oxy]-4-(4-{[2-(4-chlorophenyl)-4,4-dimethylcyclohex-1-en-1-yl]methyl}piperazin-1-yl)-N-({3-nitro-4-[(tetrahydro-2H-pyran-4-ylmethyl)amino]phenyl}sulfonyl)benzamide] | 0.81 |
| CN(C)CCCNc1ccc(S(=O)(=O)NC(=O)c2ccc(N3CCN(Cc4ccccc4-c4ccc(Cl)cc4)CC3)cc2Oc2cccc(OCc3ccccc3)c2)cc1[N+](=O)[O-] [Example 92, 2-(3-(benzyloxy)phenoxy)-4-(4-((4′-chloro-1,1′-biphenyl-2-yl)methyl)piperazin-1-yl)-N-((4-((3-(dimethylamino)propyl)amino)-3-nitrophenyl)sulfonyl)benzamide] | 2.57 |
| CNc1cccc(Oc2cc(N3CCN(Cc4ccccc4-c4ccc(Cl)cc4)CC3)ccc2C(=O)NS(=O)(=O)c2ccc(NCC3CCOCC3)c([N+](=O)[O-])c2)c1 [Example 2, 4-(4-((4′-chloro-1,1′-biphenyl-2-yl)methyl)piperazin-1-yl)-2-(3-(methylamino)phenoxy)-N-((3-nitro-4-((tetrahydro-2H-pyran-4-ylmethyl)amino)phenyl)sulfonyl)benzamide] | 31.5 |
| CN(C)CCCNc1ccc(S(=O)(=O)NC(=O)c2ccc(N3CCN(Cc4ccccc4-c4ccc(Cl)cc4)CC3)cc2Oc2ccc3[nH]cc(CCC(=O)N4CCOCC4)c3c2)cc1[N+](=O)[O-] [Example 70, 4-(4-((4′-chloro-1,1′-biphenyl-2-yl)methyl)piperazin-1-yl)-N-((4-((3-(dimethylamino)propyl)amino)-3-nitrophenyl)sulfonyl)-2-((3-(3-morpholin-4-yl-3-oxopropyl)-1H-indol-5-yl)oxy)benzamide] | 20.4 |
| CN(C)C(=O)COc1cccc(Oc2cc(N3CCN(Cc4ccccc4-c4ccc(Cl)cc4)CC3)ccc2C(=O)NS(=O)(=O)c2ccc(NCC3CCOCC3)c([N+](=O)[O-])c2)c1 [Example 105, 4-(4-((4′-chloro-1,1′-biphenyl-2-yl)methyl)piperazin-1-yl)-2-(3-(2-(dimethylamino)-2-oxoethoxy)phenoxy)-N-((3-nitro-4-((tetrahydro-2H-pyran-4-ylmethyl)amino)phenyl)sulfonyl)benzamide] | 3.57 |
| CC1(C)CCC(CN2CCN(c3ccc(C(=O)NS(=O)(=O)c4ccc(NCCN5CCOCC5)c([N+](=O)[O-])c4)c(Oc4ccccc4F)c3)CC2)=C(c2ccc(Cl)cc2)C1 [Example 126, 4-(4-{[2-(4-chlorophenyl)-4,4-dimethylcyclohex-1-en-1-yl]methyl}piperazin-1-yl)-2-(2-fluorophenoxy)-N-({4-[(2-morpholin-4-ylethyl)amino]-3-nitrophenyl}sulfonyl)benzamide] | 0.068 |
| Cc1nc2cc(Oc3cc(N4CCN(Cc5ccccc5-c5ccc(Cl)cc5)CC4)ccc3C(=O)NS(=O)(=O)c3ccc(NCCCN4CCOCC4)c([N+](=O)[O-])c3)ccc2s1 [Example 24, 4-(4-((4′-chloro-1,1′-biphenyl-2-yl)methyl)piperazin-1-yl)-2-((2-methyl-1,3-benzothiazol-5-yl)oxy)-N-((4-((3-morpholin-4-ylpropyl)amino)-3-nitrophenyl)sulfonyl)benzamide] | 15 |
| Cn1cnc2cc(Oc3cc(N4CCN(Cc5ccccc5-c5ccc(Cl)cc5)CC4)ccc3C(=O)NS(=O)(=O)c3ccc(NCCCN4CCOCC4)c([N+](=O)[O-])c3)ccc21 [Example 102, 4-(4-((4′-chloro-1,1′-biphenyl-2-yl)methyl)piperazin-1-yl)-2-((1-methyl-1H-benzimidazol-5-yl)oxy)-N-((4-((3-morpholin-4-ylpropyl)amino)-3-nitrophenyl)sulfonyl)benzamide] | 43.5 |
| O=C(NS(=O)(=O)c1ccc(NCC2CCOCC2)c([N+](=O)[O-])c1)c1ccc(N2CCN(Cc3ccccc3-c3ccc(Cl)cc3)CC2)cc1Oc1cccc(OCc2ccccc2)c1 [Example 71, 2-(3-(benzyloxy)phenoxy)-4-(4-((4′-chloro-1,1′-biphenyl-2-yl)methyl)piperazin-1-yl)-N-((3-nitro-4-((tetrahydro-2H-pyran-4-ylmethyl)amino)phenyl)sulfonyl)benzamide] | 31.6 |
| CC1(C)CCC(CN2CCN(c3ccc(C(=O)NS(=O)(=O)c4ccc(NCCN5CCOCC5)c([N+](=O)[O-])c4)c(Oc4cccc(F)c4F)c3)CC2)=C(c2ccc(Cl)cc2)C1 [Example 135, 4-(4-{[2-(4-chlorophenyl)-4,4-dimethylcyclohex-1-en-1-yl]methyl}piperazin-1-yl)-2-(2,3-difluorophenoxy)-N-({4-[(2-morpholin-4-ylethyl)amino]-3-nitrophenyl}sulfonyl)benzamide] | 0.068 |
| CN(C)CCc1ccccc1Oc1cc(N2CCN(Cc3ccccc3-c3ccc(Cl)cc3)CC2)ccc1C(=O)NS(=O)(=O)c1ccc(NCC2CCOCC2)c([N+](=O)[O-])c1 [Example 29, 4-(4-((4′-chloro-1,1′-biphenyl-2-yl)methyl)piperazin-1-yl)-2-(2-(2-(dimethylamino)ethyl)phenoxy)-N-((3-nitro-4-((tetrahydro-2H-pyran-4-ylmethyl)amino)phenyl)sulfonyl)benzamide] | 0.903 |
| CC1(C)CCC(CN2CCN(c3ccc(C(=O)NS(=O)(=O)c4ccc(NC5CCN(C6CCOCC6)CC5)c([N+](=O)[O-])c4)c(Oc4ccc5[nH]cc(Cl)c5c4)c3)CC2)=C(c2ccc(Cl)cc2)C1 [Example 281, 2-[(3-chloro-1H-indol-5-yl)oxy]-4-(4-{[2-(4-chlorophenyl)-4,4-dimethylcyclohex-1-en-1-yl]methyl}piperazin-1-yl)-N-({3-nitro-4-[(1-tetrahydro-2H-pyran-4-ylpiperidin-4-yl)amino]phenyl}sulfonyl)benzamide] | 0.111 |
| CC1(C)CCC(CN2CCN(c3ccc(C(=O)NS(=O)(=O)c4ccc(NCC5CCOCC5)c([N+](=O)[O-])c4)c(Oc4cc(NC(=O)OC(C)(C)C)ncc4Br)c3)CC2)=C(c2ccc(Cl)cc2)C1 [Example 383, tert-butyl 5-bromo-4-(5-(4-{[2-(4-chlorophenyl)-4,4-dimethylcyclohex-1-en-1-yl]methyl}piperazin-1-yl)-2-{[({3-nitro-4-[(tetrahydro-2H-pyran-4-ylmethyl)amino]phenyl}sulfonyl)amino]carbonyl}phenoxy)pyridin-2-ylcarbamate] | 427 |
| CN1CCC(Nc2ccc(S(=O)(=O)NC(=O)c3ccc(N4CCN(CC5=C(c6ccc(Cl)cc6)CC(C)(C)CC5)CC4)cc3Oc3cc(F)cc(F)c3Cl)cc2[N+](=O)[O-])CC1 [Example 165, 2-(2-chloro-3,5-difluorophenoxy)-4-(4-{[2-(4-chlorophenyl)-4,4-dimethylcyclohex-1-en-1-yl]methyl}piperazin-1-yl)-N-({4-[(1-methylpiperidin-4-yl)amino]-3-nitrophenyl}sulfonyl)benzamide] | 0.12 |
| COCCN1CCC(Nc2ccc(S(=O)(=O)NC(=O)c3ccc(N4CCN(CC5=C(c6ccc(Cl)cc6)CC(C)(C)CC5)CC4)cc3Oc3cccc(Cl)c3)cc2[N+](=O)[O-])CC1 [Example 173, 2-(3-chlorophenoxy)-4-(4-{[2-(4-chlorophenyl)-4,4-dimethylcyclohex-1-en-1-yl]methyl}piperazin-1-yl)-N-[(4-{[1-(2-methoxyethyl)piperidin-4-yl]amino}-3-nitrophenyl)sulfonyl]benzamide] | 0.019 |
| CC1(C)CCC(CN2CCN(c3ccc(C(=O)NS(=O)(=O)c4ccc(NC5CCN(CCF)CC5)c([N+](=O)[O-])c4)c(Oc4cccc(F)c4F)c3)CC2)=C(c2ccc(Cl)cc2)C1 [Example 140, 4-(4-{[2-(4-chlorophenyl)-4,4-dimethylcyclohex-1-en-1-yl]methyl}piperazin-1-yl)-2-(2,3-difluorophenoxy)-N-[(4-{[1-(2-fluoroethyl)piperidin-4-yl]amino}-3-nitrophenyl)sulfonyl]benzamide] | 0.223 |
| CC1(C)CCC(CN2CCN(c3ccc(C(=O)NS(=O)(=O)c4ccc(NCC5(N)CCOCC5)c([N+](=O)[O-])c4)c(Oc4cc5cc[nH]c5cc4F)c3)CC2)=C(c2ccc(Cl)cc2)C1 [Example 248, N-[(4-{[(4-aminotetrahydro-2H-pyran-4-yl)methyl]amino}-3-nitrophenyl)sulfonyl]-4-(4-{[2-(4-chlorophenyl)-4,4-dimethylcyclohex-1-en-1-yl]methyl}piperazin-1-yl)-2-[(6-fluoro-1H-indol-5-yl)oxy]benzamide] | 0.051 |
| O=C(NS(=O)(=O)c1ccc(NCC2CCOCC2)c([N+](=O)[O-])c1)c1ccc(N2CCN(Cc3ccccc3-c3ccc(Cl)cc3)CC2)cc1Oc1ccc2[nH]cc(CCCN3CCOCC3)c2c1 [Example 74, 4-(4-((4′-chloro-1,1′-biphenyl-2-yl)methyl)piperazin-1-yl)-2-((3-(3-morpholin-4-ylpropyl)-1H-indol-5-yl)oxy)-N-((3-nitro-4-((tetrahydro-2H-pyran-4-ylmethyl)amino)phenyl)sulfonyl)benzamide] | 189 |
